# According to patent US4749710A, “Immunosuppressive agents” (priority 1985, dated 1988):
# Like-named read-outs stand apart in the source and are kept apart here.
# Columns and labels:
# [1] = system: murine cytotoxic T-lymphocyte responses; assay: cells; assay type: cell-based; details: for CTL activity (% specific ^51 Cr release): 90:1 effector to target
# From the text: Immunosuppressive Activity of Vitamin D compounds on cytotoxic T lymphocyte Responses-General Test Description
# Cytotoxic thymus-derived lymphocytes (CTL) constitute an important aspect of immune function and, as a result, play a key role in the rejection of grafted cells, tissues and organs. It is, therefore, essential to suppress CTL generation in a clinical situation in which CTL function is antithetical to the desired outcome as, for example, in transplantation. Cytotoxic T-lymphocytes have been studied for several years by many investigators and methods to evaluate CTL responses in vitro are well established.
# As described below, CTL responses as affected by Vitamin D derivatives, were studied in vitro using cells from lab animals and human volunteers. Cytotoxic T-lymphocytes were generated from responder lymphoid cells in tissue culture medium during an incubation period of 6 days by exposure to foreign stimulator cells, i.e. from a genetically disparate source. A portion of the resultant effector cells were CTL capable of killing fresh cells related to the stimulator cells employed in the 6 day culture. To detect killing of cells by CTL, fresh target cells were incubated in excess ^51 chromium (as sodium chromate) until they were extensively labelled. Since target cells will retain the internalized radioisotope as long as they are viable but release the label when they are killed, CTL activity was assessed by quantitating the chromium released from target cells after a 4 or 18 hour incubation with CTL. Immunosuppression produced by Vitamin D derivatives was gauged as the ability to inhibit CTL responses during the initial incubation period relative to control cultures to which no Vitamin D derivative was added.
# Female BALB/c By and C57BL/6 mice were obtained from Jackson Laboratories and were used between 8 and 10 weeks of age. Mice were given food and water ad libitum and were kept in a 12 hour light and 12 hour dark cycle.
# For murine cultures, minimal essential medium with Hank's salts was supplemented to 1 millimolar with sodium pyruvate, to 0.1 millimolar with nonessential amino acids, to 2 millimolar with 1-glutamine, to 10% (v/v) with heat-inactivated fetal bovine serum, to 50 micrograms per ml with gentamicin, and to 1000 milligrams per liter with sodium bicarbonate and was used as tissue culture medium.
# Stock solutions of Vitamin D derivatives were made in argon-saturated ethanol at a final concentration of 1×10^-2 molar, were covered with argon before sealing and were stored at -20° C. in the dark. Reduced lighting conditions were always employed when working with compounds. Compounds were diluted in tissue culture medium to 1×10^-4 molar and all subsequent dilutions were done in tissue culture medium containing 1% v/v ethanol. The final dilution into culture vessels was 1:10 thus keeping the vehicle concentration constant at 0.1% while varying the concentration of compound as tabulated in the results. For purposes of control, mixed leukocyte cultures were incubated in medium only (medium control) or in medium containing a final concentration of 0.1% ethanol (vehicle control).
# Murine cytotoxic T-lymphocytes were generated in mixed leukocyte cultures by known methods. Specifically, single cell suspensions were prepared from spleens by gentle disruption in balanced salt solution (Hanks' balanced salt solution supplemented to 10%, v/v, with fetal bovine serum). After sedimentation on ice to remove particulate debris, cell suspensions were centrifuged at 400xg and were resuspended in fresh balanced salt solution. Cells to be used as stimulator cells were precluded from proliferating or generating cytotoxic T-lymphocytes by exposure to 1000 rads of gamma irradiation using a ^137 cesium source. […]
# [2] = system: human cytotoxic T-lymphocyte responses; assay: Inhibition of human CTL responses (mixed leukocyte-tumor cultures, HT-144 melanoma, ^51 Cr release); assay type: cell-based; details: for inhibition at 10 µM / inhibition at 1 µM / inhibition at 0.1 µM: Homo sapiens, T-lymphocyte, read-out: Inhibition of CTL activity (%); for inhibition at 10 µM / inhibition at 1 µM / inhibition at 0.1 µM / CTL activity (% specific ^51 Cr release): 0.1% ethanol
# How it was run: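 Effector CTLs came from 6-day mixed leukocyte–tumor cultures of donor PBMC with irradiated stimulator cells plus 1×10^-5 M hydrocortisone. Effectors were added to adhered ^51Cr-labelled target cells overnight at 37 °C; specific ^51Cr release gave percent inhibition, mean±SEM of triplicates.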
# [3] = Test 1, donor I, 1 × 10^-5 molar, effector to target 6:1
# [4] = Test 1, donor I, 1 × 10^-6 molar, effector to target 6:1
# [5] = Test 2, donor II, 1 × 10^-6 molar, effector to target 6:1
# [6] = Test 2, donor II, 1 × 10^-7 molar, effector to target 6:1
# [7] = Test 1, donor I, 1 × 10^-7 molar, effector to target 6:1
# [8] = Test 2, donor III, 1 × 10^-6 molar, effector to target 32:1
# [9] = Test 2, donor III, 1 × 10^-7 molar, effector to target 32:1
# [10] = Test 3, donor IV, 1 × 10^-6 molar, effector to target 24:1
# [11] = Test 3, donor IV, 1 × 10^-7 molar, effector to target 24:1
compound,measurement,setting,value
"C=C1/C(=C\C=C2/CCC[C@]3(C)[C@@H]([C@H](C)C[C@H](O)CC(C)(C)O)CC[C@@H]23)C[C@@H](O)C[C@@H]1O [1α,23S,25-(OH)3 --D3, 1α,23S,25-Trihydroxycholecalciferol]",inhibition at 10 µM,"[1]; Mus musculus, T-lymphocyte, Table I, 1 × 10^-5 molar, vs vehicle control, read-out: Inhibition of CTL activity (%)",77%
same,inhibition at 1 µM,"[1]; Mus musculus, T-lymphocyte, Table I, 1 × 10^-6 molar, vs vehicle control, read-out: Inhibition of CTL activity (%)",59%
same,inhibition at 0.1 µM,"[1]; Mus musculus, T-lymphocyte, Table I, 1 × 10^-7 molar, vs vehicle control, read-out: Inhibition of CTL activity (%)",43%
same,inhibition at 0.01 µM,"[1]; Mus musculus, T-lymphocyte, Table I, 1 × 10^-8 molar, vs vehicle control, read-out: Inhibition of CTL activity (%)",18%
same,inhibition at 0.001 µM,"[1]; Mus musculus, T-lymphocyte, Table I, 1 × 10^-9 molar, vs vehicle control, read-out: Inhibition of CTL activity (%)",0%
same,CTL activity (% specific ^51 Cr release),"[1]; Table I, 1 × 10^-5 molar",10 % specific ^51 Cr release
same,CTL activity (% specific ^51 Cr release),"[1]; Table I, 1 × 10^-6 molar",18 % specific ^51 Cr release
same,CTL activity (% specific ^51 Cr release),"[1]; Table I, 1 × 10^-7 molar",25 % specific ^51 Cr release
same,CTL activity (% specific ^51 Cr release),"[1]; Table I, 1 × 10^-8 molar",36 % specific ^51 Cr release
same,CTL activity (% specific ^51 Cr release),"[1]; Table I, 1 × 10^-9 molar",45 % specific ^51 Cr release
same,suppression of murine cytotoxic T-lymphocyte responses (in words),[1]; in vitro,suppress murine cytotoxic T-lymphocyte responses
same,inhibition at 10 µM,[2]; [3],95%
same,inhibition at 1 µM,[2]; [4],72%
same,inhibition at 1 µM,[2]; [5],62%
same,inhibition at 0.1 µM,[2]; [6],73%
same,suppression of generation of human cytotoxic T-lymphocytes (in words),[2]; Table IV,suppressed the generation of human cytotoxic T-lymphocytes
same,CTL activity (% specific ^51 Cr release),[2]; [3],2 ± 3 % specific ^51 Cr release
same,CTL activity (% specific ^51 Cr release),[2]; [4],12 ± 3 % specific ^51 Cr release
same,CTL activity (% specific ^51 Cr release),[2]; [5],14 ± 7 % specific ^51 Cr release
same,CTL activity (% specific ^51 Cr release),[2]; [6],10 ± 2 % specific ^51 Cr release
"C=C1/C(=C\C=C2/CCC[C@]3(C)[C@@H]([C@H](C)/C=C/[C@H](C)[C@](C)(O)CO)CC[C@@H]23)C[C@@H](O)C[C@@H]1O [1α,25S,26-(OH)3 --D2, 1α,25S,26-Trihydroxyergocalciferol]",inhibition at 1 µM,[2]; [4],54%
same,inhibition at 0.1 µM,[2]; [7],76%
same,inhibition at 1 µM,[2]; [8],100%
same,inhibition at 0.1 µM,[2]; [9],87%
same,inhibition at 1 µM,[2]; [10],82%
same,inhibition at 0.1 µM,[2]; [11],40%
same,CTL activity (% specific ^51 Cr release),[2]; [4],17 ± 4 % specific ^51 Cr release
same,CTL activity (% specific ^51 Cr release),[2]; [7],9 ± 2 % specific ^51 Cr release
same,CTL activity (% specific ^51 Cr release),[2]; [8],-4 ± 2 % specific ^51 Cr release
same,CTL activity (% specific ^51 Cr release),[2]; [9],7 ± 2 % specific ^51 Cr release
same,CTL activity (% specific ^51 Cr release),[2]; [10],10 ± 2 % specific ^51 Cr release
same,CTL activity (% specific ^51 Cr release),[2]; [11],34 ± 10 % specific ^51 Cr release
"C=C1/C(=C\C=C2/CCC[C@]3(C)[C@@H]([C@H](C)C=CC[C@](C)(O)CO)CC[C@@H]23)C[C@@H](O)C[C@@H]1O [1α,25S,26-(OH)3 --Δ^22 -D3, 1α,25S,26-Trihydroxy-Δ^22-cholecalciferol]",inhibition at 10 µM,[2]; [3],63%
same,inhibition at 1 µM,[2]; [4],70%
same,inhibition at 1 µM,[2]; [5],49%
same,inhibition at 0.1 µM,[2]; [6],97%
same,CTL activity (% specific ^51 Cr release),[2]; [3],16 ± 4 % specific ^51 Cr release
same,CTL activity (% specific ^51 Cr release),[2]; [4],13 ± 8 % specific ^51 Cr release
same,CTL activity (% specific ^51 Cr release),[2]; [5],19 ± 4 % specific ^51 Cr release
same,CTL activity (% specific ^51 Cr release),[2]; [6],1 ± 4 % specific ^51 Cr release
